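Briefly, cells in 96-well plates were exposed to five compound concentrations for 48 h, and endpoints were estimated by linear interpolation. GI50 = concentration required for 50% inhibition of growth. TGI: concentration producing complete growth inhibition.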 Where a SMILES comes first, the peptide text is derived from it. [ ]: non-standard residue; d: D form. The star is where a group is joined. ξ: configuration not given here. dIva = CC[C@@](C)(N)C(=O)O; Aib = CC(C)(N)C(=O)O; ξP = O=C(O)C1CCCN1; βAla = NCCC(=O)O; X5 = OCN*
Key:
Assay in all cases: DTP human tumour cell line panel, 48 h
A549 NSCLC = tested on: A549 NSCLC
M14 melanoma = tested on: M14 melanoma
OVCAR-5 ovarian = tested on: OVCAR-5 ovarian
RPMI-8226 leukemia = tested on: RPMI-8226 leukemia
SK-MEL-5 melanoma = tested on: SK-MEL-5 melanoma
SNB-19 CNS = tested on: SNB-19 CNS
SNB-75 CNS = tested on: SNB-75 CNS
SW-620 colon = tested on: SW-620 colon
UACC-62 melanoma = tested on: UACC-62 melanoma
EKVX NSCLC = tested on: EKVX NSCLC

Row | SMILES | GI50 (A549 NSCLC) [µM] | TGI (A549 NSCLC) [µM] | GI50 (M14 melanoma) [µM] | TGI (M14 melanoma) [µM] | GI50 (OVCAR-5 ovarian) [µM] | TGI (OVCAR-5 ovarian) [µM] | GI50 (RPMI-8226 leukemia) [µM] | TGI (RPMI-8226 leukemia) [µM] | GI50 (SK-MEL-5 melanoma) [µM] | TGI (SK-MEL-5 melanoma) [µM] | GI50 (SNB-19 CNS) [µM] | TGI (SNB-19 CNS) [µM] | GI50 (SNB-75 CNS) [µM] | TGI (SNB-75 CNS) [µM] | GI50 (SW-620 colon) [µM] | TGI (SW-620 colon) [µM] | GI50 (UACC-62 melanoma) [µM] | TGI (UACC-62 melanoma) [µM] | TGI (EKVX NSCLC) [µM] | GI50 (EKVX NSCLC) [µM]
1 | COc1ccc(CNC(=O)c2c(C)n([O-])c3cc(F)c(F)cc3[n+]2=O)cc1 | 17.6 | 36.8 | 12 | 24.4 | 16 | 29.4 | 6.4 | 30.9 | 12.7 | 25.3 | 13.1 | 25.8 | 0.461 | 5.58 | 3.83 | 13.1 | 15 | 28.5 |  | 
2 | COc1cc2c3c(n(CCCN4CCN(CCO)CC4)c(=O)c2cc1OC)-c1cc2c(cc1C3=O)OCO2 | 4.23 | 20.7 | 6.23 | 19.5 | 19.9 | 40.9 | 0.559 | 3.91 | 13 | 26 | 14.3 | > 65.7 | 9.87 | 31.7 | 8.37 | 24.7 |  | > 33.9 |  | 
3 | CC(C)CC1NC(=O)C(C(C)C)NC(=O)CC(C)COC(=O)C(CC(C)C)N(C)C(=O)C(C(C)C)NC(=O)C(C(C)C)OC1=O (stereo not drawn) |  | > 50 |  | > 50 |  | > 50 |  |  |  | > 50 |  | > 50 |  | 30.2 |  | > 50 |  | > 50 | > 50 | 
4 | N#CC1C(=O)NC(=O)C(C#N)C1c1ccc(Cl)c(Cl)c1 (stereo not drawn) |  | > 100 |  | 56 |  | 68.6 |  |  |  | 48.3 |  | > 100 |  | 74.2 |  | 36.8 |  |  | > 100 | 
5 | O=C(OCc1ccccc1)c1ccccc1-c1c2ccc(=O)cc-2oc2cc(OCc3ccccc3)ccc12 |  | 82.2 |  | 44.7 |  | > 100 |  | 57.7 |  | 17.8 |  | > 100 |  |  |  | > 100 |  | 24.6 | > 100 | 
6 | COc1ccc(-c2cc(=O)c3cccnc3[nH]2)cc1 |  | > 100 |  | 95.6 |  | > 100 |  | > 100 | 35 | > 100 |  | > 100 |  |  |  | > 100 |  | 91.2 | > 100 | 
7 | C(=NCCN=Cc1cccc2ccccc12)c1cccc2ccccc12 |  | > 100 |  |  |  | > 100 |  | > 100 |  | > 100 |  | > 100 |  | > 100 |  | > 100 |  | > 100 | > 100 | 
8 | NC(N)=N/N=C/c1ccc(Br)cc1 | 6.46 | 23.4 | 2.21 | 5.67 | 10.4 | 24.9 | 11.6 | > 100 | 2.36 | 9.28 | 5.74 | 24.2 | 1.6 | 5.76 | 3.8 | 15.9 | 5.36 | 17.8 |  | 
9 | O=C(Nc1ccc(N2CCNCC2)cn1)c1[nH]ncc1Nc1ncnc2sc3c(c12)CCC3 | 1.67 | 3.5 | 1.49 | 3.22 |  |  | 1.94 | 5.82 |  |  |  |  | 1.6 | 4.04 | 0.476 | 2.05 | 1.98 | 4.2 | 5.77 | 1.99
10 | CC[C@@](C)(NC(=O)[C@H](C)NC(=O)CCNC(=O)C(C)(C)NC(=O)[C@H](C)NC(=O)[C@@H]1CCCN1C(=O)[C@@](C)(CC)NC(=O)[C@H](Cc1ccccc1)NC(=O)C1CCCN1C(=O)C(C)(C)NC(=O)C1CCCN1C(=O)C(C)(C)NC(C)=O)C(=O)NCCC(=O)N[C@@H](CC(C)C)C(=O)NC(C)(C)C(=O)NCCC(=O)N[C@@H](CC(C)C)C(=O)NC(C)(C)C(=O)NC(C)(C)C(=O)N[C@@H](CC(C)C)C(=O)NCCC(=O)NCO (stereo partly drawn) (Ac-[Aib][ξP][Aib][ξP]F[dIva]PA[Aib][βAla]A[dIva][βAla]L[Aib][βAla]L[Aib][Aib]L[βAla]-X5) | 0.133 | 0.351 | 0.188 | 0.391 | 0.197 | 0.422 |  |  | 0.0991 | 0.302 | 0.0952 | 0.304 | 0.0608 | 0.307 | 0.149 | 0.403 | 0.258 | 0.503 | 0.275 | 0.0661
11 | N#CC1([N+](=O)[O-])C=C1c1ccccc1 (stereo not drawn) |  | > 100 |  | > 100 |  | > 100 |  | 49.5 |  | > 100 |  | > 100 |  |  |  | 41.6 |  | 66.3 | > 100 | 
12 | Cc1ccc(SSCCCCS(=O)O)cc1 |  | 70.6 |  | 32.6 |  | 96.3 |  |  |  | 25.6 |  | > 100 |  | > 100 |  | 38.5 |  | 42.6 | 55.6 | 
13 | CC1CC2(C)CC(=O)C1C1C(=O)N(CCN3CCOCC3)C(=O)C12 (stereo not drawn) | > 100 | > 100 | > 100 | > 100 | > 100 | > 100 |  |  | > 100 | > 100 | > 100 | > 100 | > 100 | > 100 | > 100 | > 100 | > 100 | > 100 | > 100 | > 100
14 | CN/N=C(/CC(=O)c1sc(NNC(C)=O)nc1C)C(=O)Nc1ccc(OC)cc1OC |  | > 100 |  | > 100 |  | > 100 |  | > 100 |  | > 100 |  | > 100 |  |  |  | > 100 |  | > 100 | > 100 | 
15 | CCN(CC)c1ccc(N=C2C=CC(=C(C#N)C#N)c3ccccc32)c(C)c1 |  | 5.33 |  | 3.6 |  |  |  | 15.2 |  | 2.92 |  | 13.1 |  | 5.69 |  |  |  | 3.43 | 18.4 | 
16 | COC(=O)C1=C(O)C(C(=O)OC)[C@@]2(O)[C@@H](C(=O)OC)C(c3ccccc3Cl)C[C@@H]1[C@@H]2C(=O)OC (stereo partly drawn) | 9.04 | 53.9 |  |  | 15 | 32.4 | 1.88 | 6.2 | 11.1 | 24.2 | 16.2 | 39.5 |  |  | 5.46 | 21.9 | 2.53 | 6.89 | 38.3 | 19.4
17 | ClCCCN1CCCCC1CCl (stereo not drawn) |  | > 100 |  | > 100 |  | > 100 |  | > 100 |  | > 100 |  | > 100 |  | > 100 |  | > 100 |  | > 100 |  | 

Source: PubChem BioAssay (NCI)
